We go through 1 compound from patent US20240360145A1, “PYRIMIDINE-2,4-DIAMINE DERIVATIVES AS WELL AS PREPARATION METHOD THEREFOR AND USE THEREOF” (LISEN THERAPEUTICS, INC., priority 2022, published 2024).

Data set [1] deals with Cal-62 (thyroid cancer). Nature of the data set: Cell viability IC50 (CellTiter-Glo), Cal-62. In kind it is cell-based. The following applies: Homo sapiens, Cal-62, 72 hours. The procedure:
(§1) The cancer cell lines were cultured to the logarithmic growth phase according to conventional culture methods, and the cells were inoculated into a 384-well plate at a density of 2,000 cells/well in a volume of 40 μl/well. The concentrations of added compounds were: […], 1.67 μM, 0.56 μM, 0.19 μM, 0.062 μM, 0.021 μM, 0.0069 μM, 0.0023 μM, 0.00076 μM, and 0 μM. After 72 hours, cell viability was detected using the CellTiter-Glo™ Detection Kit.
A general note: Cellular ATP, detected with luciferase, serves as a proxy for viable cell number.

Data set [2] relates to PE043 primary cells. Briefly: Cell viability IC50 (CCK-8), primary cells PE043 from lung adenocarcinoma pleural effusion resistant to EGFR-TKI. The following applies: read-out: cell viability IC50.
Description: (1) The pleural effusion was poured into a 15 mL or 50 mL of sterilized centrifuge tube for centrifugation. Centrifugation conditions: 800 to 1000 rpm, 5 min.
(2) The precipitate was resuspended and washed for 2 to 3 times with PBS.
(3) The cell precipitate was resuspended with complete culture medium (α-MEM medium containing 10% fetal bovine serum and 2% penicillin-streptomycin), and the flocculent matter in the pleural effusion was removed using a sterilized cell sieve.
(4) The red blood cells in the pleural effusion were removed with lymphocyte separation fluid, and the tumor cells and lymphocyte components were collected. The number of tumor cells was observed under a microscope, and the cells were inoculated.
(5) After 24 hours, the supernatant was discarded, and fresh culture medium was added for further culture.
(6) The cell growth status was observed, and it was determined based on the cell status whether the medium was required to be continuously changed to remove blood cells. When the cells grew to a density of 80% to 90%, the cells were preserved.
(1) Primary cells from lung cancer pleural effusion within 5 generations were cultured to the logarithmic growth phase. […] After centrifugation at room temperature, the supernatant was discarded, and the cell precipitate was resuspended with fresh complete culture medium. After counting, the cells were placed at room temperature for later use. The cells were inoculated into a 384-well plate at a density of 2000 cells/well with a volume of 40 μl/well. The wells at the outermost circle of the plate were not inoculated with cells, and instead, added with sterile water to reduce evaporation of the culture medium.
(2) After overnight culture of the cells, the medium was discarded, and a fresh medium containing different concentrations of compounds was added at 200 μl/well. The dilution method of the compound was as follows: first the compound with the highest concentration of 10 μM was prepared, and then the compound was diluted for 3 times in sequence. […] At the same time, a blank control group was set up, in which only an equal volume of culture medium was added without adding cells. Five replicate wells were set up for each group. The cells were placed in the incubator for further culture.
(3) After 72 hours, 8 μl of CCK-8 solution, which was double-diluted with 10 mM PBS, was added to each well, and the cells were shaken and placed in an incubator at 37° C. for further culture for 2 hours.
The test system of data set [3] is primary cells from pleural effusion of patients with small cell lung cancer. Briefly: Cell viability IC50 (CCK-8), summary over primary cells from pleural effusion of patients with small cell lung cancer. Format: cell-based. The following applies: Homo sapiens; range over primary cells of patients with small cell lung cancer (Table 4). Here is the method:
(1) Primary cells from lung cancer pleural effusion within 5 generations were cultured to the logarithmic growth phase. When the confluence reached about 90%, the cells were digested with 0.25% trypsin, and complete culture medium was added to collect the cells. After centrifugation at room temperature, the supernatant was discarded, and the cell precipitate was resuspended with fresh complete culture medium. After counting, the cells were placed at room temperature for later use. The cells were inoculated into a 384-well plate at a density of 2000 cells/well with a volume of 40 μl/well. The wells at the outermost circle of the plate were not inoculated with cells, and instead, added with sterile water to reduce evaporation of the culture medium.
(2) After overnight culture of the cells, the medium was discarded, and a fresh medium containing different concentrations of compounds was added at 200 μl/well. The dilution method of the compound was as follows: first the compound with the highest concentration of 10 μM was prepared, and then the compound was diluted for 3 times in sequence. […] At the same time, a blank control group was set up, in which only an equal volume of culture medium was added without adding cells. […]
(4) The light absorbance value at 450 nm was read using a microplate reader, and the IC50 was calculated according to the absorbance value. […]

Data set [4] concerns various cancer cell lines. Nature of the data set: Cell viability IC50 (CellTiter-Glo), summary over various cancer cell lines. In kind it is cell-based. The procedure: as §1
Data set [5] concerns KYSE-70 (esophageal cancer). Briefly: Cell viability IC50 (CellTiter-Glo), KYSE-70. In kind it is cell-based. The following applies: Homo sapiens, KYSE-70, 72 hours. The procedure: as §1
In data set [6] the test system is DMS114 cells. Briefly: Cell viability IC50 (CCK-8), small cell lung cancer cell line DMS114. Format: cell-based. The following applies: Homo sapiens, DMS-114; DMS114, CCK-8. Here is the method:
Small cell lung cancer cell lines DMS114, NCI-H1688, NCI-H82, NCI-H146, and NCI-H446 cells were cultured in RPMI-1640 medium containing 10% fetal bovine serum and 1% penicillin-streptomycin. All the cells were cultured in a constant temperature incubator containing 5% CO2 at 37° C.
Small cell lung cancer is a highly heterogeneous malignant tumor, and its clinical treatment is mainly based on traditional chemotherapy (mainly platinum medicaments and etoposide). In order to study the anti-tumor activity of the compounds of the present disclosure in small cell lung cancer, the CCK-8 method was used to investigate the cell viability IC50 of compound 8 for five small cell lung cancer cell lines.

In data set [7] the test system is AGS (gastric cancer). Nature of the data set: Cell viability IC50 (CellTiter-Glo), AGS. Format: cell-based. The following applies: 72 hours. Here is the method:
as §1

The test system of data set [8] is small cell lung cancer cell line H446 cells. Nature of the data set: In vivo antitumor effect in mice bearing small cell lung cancer cell line H446 cells (CDX model).
Description: H446 cells in the logarithmic growth phase were suspended in PBS solution, and then inoculated subcutaneously in the right forelimb of nude mice. The cell density was about 2×10^8 cells/mL, and each mouse was inoculated with 0.1 mL of the cell suspension, for a total of 80 mice. When the subcutaneous tumor grew to range from 50 mm^3 to 100 mm^3, 40 tumor-bearing mice were randomly divided into groups and numbered, and drug administration began.
(1) Vehicle blank control group: 5% DMSO+20% PEG 300+75% saline (normal saline);
The cycle repeated twice, and no medication for the final 6 days.
All tumor-bearing mice were killed after 20 days.

A word on the IC50: it is the concentration that inhibits the measured activity by half. Turning to `CN1CC2CCC(C1)N2Cc1ccc(Nc2ncc(Cl)c(Nc3ccccc3S(=O)(=O)N(C)C)n2)cc1` [Compound 8, 2-((5-chloro-2-((4-((3-methyl-3,8-diazabicyclo[3.2.1]octan-8-yl)methyl)phenyl)amino)pyrimidin-4-yl)amino)-N,N-dimethylbenzenesulfonamide], the IC50 in data set [1] is 21.9 nM; in data set [2], 34.6 nM; in data set [3] it was 2.7 to 59.9 nM; in data set [4] (colon cancer, liver cancer, cervical cancer, ovarian cancer, and esophageal cancer) it was below 200 nM; in data set [4] (thyroid cancer, breast cancer, bladder cancer, glioma, pancreatic cancer, melanoma, and gastric cancer) it was below 100 nM; in data set [5], 122 nM. Further, the results for the IC50 in data set [6] and in data set [7] were 6.03 nM and 36.2 nM, respectively. Moreover, the toxicity result in data set [8] (H446 CDX nude mice, 15 mg/kg, judged from body weight) is given as “not significant”. In data set [8] (H446 CDX nude mice, intraperitoneal injection, 20 days), the “inhibitory effect on tumor volume growth compared with blank control (FIG. 1)” value is “significantly inhibited the growth of tumor volume”. In addition, in data set [8] (H446 CDX nude mice, intraperitoneal injection, 20 days, compound 8 and TP-0903 15 mg/kg once a day for 13 days, Cisplatin 2.5 mg/kg + Etoposide 4 mg/kg cycles), the animals survived is on record as 11 out of 12. The “body weight changes of nude mice (FIG. 2)” value in data set [8] (during the drug administration period, recovered rapidly after drug withdrawal) is listed as “slight decrease in body weight”.
